Structures can show the parent of a compound that is named as a salt.
Legend:
[1] = molecular target: T1, Bromodomain BRD3 (1-435) (Homo sapiens, UniProt Q15059); assay: Time Resolved Fluorescence Resonance Energy Transfer (TR-FRET) binding assay, BRD3; conditions: BRD3 100 nM, acetylated histone peptide 300 nM
T1 construct: Recombinant Human Bromodomains (BRD2 (1-473), BRD3 (1-435) and BRD4 (1-477)); made in house; host or cells: E. coli (pET15b vector)
Method: (§1) The binding of the compounds of formula (I) to Bromodomains BRD2, BRD3 and BRD4 was assessed using a time resolved fluorescent resonance energy transfer binding assay, that measures the binding of an acetylated histone peptide to the bromodomain protein.
(§2) The bromodomain protein, histone peptide and a variable concentration of test compound are incubated together to reach thermodynamic equilibrium.
(§3) • H-Ser-Gly-Arg-Gly-Lys(Ac)-Gly-Gly-Lys(Ac)-Gly-Leu-Gly-Lys(Ac)-Gly-Gly-Ala-Lys(Ac)-Arg-His-Gly-Ser-Gly-Ser-Lys(Biotin)-OH. 3TFA
(§4) Protein Production: Recombinant Human Bromodomains (BRD2 (1-473), BRD3 (1-435) and BRD4 (1-477)) were expressed in E. coli cells (in pET15b vector) with a six-His tag at the N-terminal. The His-tagged Bromodomain was extracted from E. coli cells using sonication and purified using a nickel sepharose 6FF column, the proteins were washed and then eluted with 50 mM Tris-Hcl pH8.0. 300 mM NaCl, 1 mM […] and 20 mM Imidazole. Further purification was performed by affinity chromatography on a HisTRAP HP column, eluting with a linear 0-500 mM sodium chloride gradient, over 20 column volumes. Final purification was completed by Superdex 200 prep grade size exclusion column. Purified protein was stored at −80 C in 20 mM HEPES pH 7.5 and 100 mM NaCl. Protein identity was confirmed by peptide mass fingerprinting and predicted molecular weight confirmed by mass spectrometry.
(§5) Protocol for Bromodomain BRD2, 3 and 4 Assays: All assay components were dissolved in buffer composition of 50 mM HEPES pH7.4, 50 mM NaCl and 0.5 mM CHAPS. The final concentration of bromodomain proteins were 100 nM and the histone peptide was 300 nM, these components are premixed and allowed to equilibrate for 1 hour in the dark. 8 μl of this reaction mixture was added to all wells containing 50 nl of various concentrations of test compound or DMSO vehicle (0.5% final) in Greiner 384 well black low volume microtitre plates and incubated in dark for 60 mins at room temperature. 2 μl of detection mixture containing anti-6his XL665 labeled antibody and streptavidin labeled with europium cryptate was added to all wells and a further dark incubation of at least 30 mins was performed. Plates were then read on the Envision platereader, (λex=317 nm, donor λEM=615 nm; acceptor λEM=665 nm; Dichroic LANCE dual). Time resolved fluorescent intensity measurements were made at both emission wavelengths and the ratio of acceptor/donor was calculated and used for data analysis. All data was normalized to the mean of 16 high and 16 low control wells on each plate. A four parameter curve fit of the following form was then applied: y=a+((b−a)/(1+(10^x/10^c)^d)
(§6) Where ‘a’ is the minimum, ‘b’ is the Hill slope, ‘c’ is the pIC50 and ‘d’ is the maximum.

[2] = molecular target: T2, Bromodomain BRD2 (1-473) (Homo sapiens, UniProt P25440); assay: Time Resolved Fluorescence Resonance Energy Transfer (TR-FRET) binding assay, BRD2; conditions: BRD2 100 nM, acetylated histone peptide 300 nM
T2 construct: Recombinant Human Bromodomains (BRD2 (1-473), BRD3 (1-435) and BRD4 (1-477)); made in house; host or cells: E. coli (pET15b vector)
T2 sequence (P25440 1-473): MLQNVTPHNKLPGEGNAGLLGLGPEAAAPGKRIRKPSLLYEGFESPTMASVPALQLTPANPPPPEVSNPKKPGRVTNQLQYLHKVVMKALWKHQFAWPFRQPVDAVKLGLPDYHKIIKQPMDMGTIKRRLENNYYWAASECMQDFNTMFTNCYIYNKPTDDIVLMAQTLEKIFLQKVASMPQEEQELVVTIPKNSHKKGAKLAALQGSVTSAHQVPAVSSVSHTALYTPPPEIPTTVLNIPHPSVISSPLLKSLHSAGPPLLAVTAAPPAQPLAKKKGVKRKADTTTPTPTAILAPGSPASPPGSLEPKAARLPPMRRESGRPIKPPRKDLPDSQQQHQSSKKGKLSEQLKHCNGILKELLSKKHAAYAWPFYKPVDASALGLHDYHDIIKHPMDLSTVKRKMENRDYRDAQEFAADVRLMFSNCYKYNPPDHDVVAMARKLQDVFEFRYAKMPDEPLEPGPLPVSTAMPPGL
Method: as §1, §2, §3, §4, §5, §6

[3] = molecular target: T3, Bromodomain BRD4 (1-477) (Homo sapiens, UniProt O60885); assay: Time Resolved Fluorescence Resonance Energy Transfer (TR-FRET) binding assay, BRD4; conditions: BRD4 100 nM, acetylated histone peptide 300 nM
T3 construct: Recombinant Human Bromodomains (BRD2 (1-473), BRD3 (1-435) and BRD4 (1-477)); made in house; host or cells: E. coli (pET15b vector)
Method: as §1, §2, §3, §4, §5, §6

[4] = system: LPS induced IL-6 secretion from whole blood; assay: Measurement of LPS induced IL-6 secretion from whole blood; assay type: cell-based; conditions: LPS 200 ng/ml, 24 hours, IL-6 by immunoassay
Method: Activation of monocytic cells by agonists of toll-like receptors such as bacterial lipopolysaccharide (LPS) results in production of key inflammatory mediators including IL-6. Such pathways are widely considered to be central to the pathophysiology of a range of auto-immune and inflammatory disorders.
Compounds to be tested are diluted to give a range of appropriate concentrations of which 1 μl of the diluted stocks is added to a 96 well plate. Following addition of whole blood (130 μl) the plates are incubated at 37 degrees (5% CO2) for 30 min before the addition of 10 μl of 2.8 ug/ml LPS, diluted in complete RPMI 1640 (final concentration=200 ng/ml), to give a total volume of 140 ul per well. After further incubation for 24 hours at 37 degrees, 140 μl of PBS are added to each well. The plates are sealed, shaken for 10 minutes and then centrifuged (2500 rpm×10 min). 100 μl of the supernatant are removed and IL-6 levels assayed by immunoassay (typically by MesoScale Discovery technology) either immediately or following storage at −20 degrees. Concentration response curves for each compound was generated from the data and an IC50 value was calculated.

T1 sequence (Q15059 1-435): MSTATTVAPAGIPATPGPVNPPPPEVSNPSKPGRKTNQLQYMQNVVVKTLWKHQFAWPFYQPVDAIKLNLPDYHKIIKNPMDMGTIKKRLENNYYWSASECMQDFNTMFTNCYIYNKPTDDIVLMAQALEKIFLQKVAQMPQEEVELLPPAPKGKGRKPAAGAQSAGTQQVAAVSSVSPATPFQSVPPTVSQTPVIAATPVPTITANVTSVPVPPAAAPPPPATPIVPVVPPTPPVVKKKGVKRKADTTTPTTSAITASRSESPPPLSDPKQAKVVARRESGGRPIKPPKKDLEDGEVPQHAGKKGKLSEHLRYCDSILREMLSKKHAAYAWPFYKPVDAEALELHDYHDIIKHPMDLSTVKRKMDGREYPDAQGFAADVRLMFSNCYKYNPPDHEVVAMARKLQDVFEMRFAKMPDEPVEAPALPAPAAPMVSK

Compound | IC50 [1] [nM] | IC50 [2] [nM] | IC50 [3] [nM] | IC50 [4] [nM]
CC(=O)N1c2ccc(-c3ccc(C(=O)OCCN(C)C)cc3)cc2[C@H](NC(=O)OC(C)C)C[C@@H]1C [Example 8, 2-(Dimethylamino)ethyl 4-((2S,4R)-1-acetyl-4-((isopropoxycarbonyl)amino)-2-methyl-1,2,3,4-tetrahydroquinolin-6-yl)benzoate] | 63.1 to 501 | 63.1 to 501 | 63.1 to 501 | 200 to 3160
CC(=O)N1c2ccc(-c3ccc(C(=O)OCCC[N+](C)(C)C)cc3)cc2[C@H](Nc2ccc(Cl)cc2)C[C@@H]1C [Example 3, 3-((4-((2S,4R)-1-Acetyl-4-((4-chlorophenyl)amino)-2-methyl-1,2,3,4-tetrahydroquinolin-6-yl)benzoyl)oxy)-N,N,N-trimethylpropan-1-aminium, formate] | 63.1 to 501 | 63.1 to 501 | 63.1 to 501 | 200 to 3160
CC(=O)N1c2ccc(-c3ccc(C(=O)OCC[N+](C)(C)C)cc3)cc2[C@H](Nc2ccc(Cl)cc2)C[C@@H]1C [Example 2, 2-((4-((2S,4R)-1-Acetyl-4-((4-chlorophenyl)amino)-2-methyl-1,2,3,4-tetrahydroquinolin-6-yl)benzoyl)oxy)-N,N,N-trimethylethanaminium, formate] | 63.1 to 501 | 63.1 to 501 | 63.1 to 501 | 200 to 3160
CC(=O)N1c2ccc(-c3ccc(C(=O)OCCN(C)C)cn3)cc2[C@H](Nc2ccc(C#N)cn2)C[C@@H]1C [Example 6, 2-(Dimethylamino)ethyl 6-((2S,4R)-1-acetyl-4-((5-cyanopyridin-2-yl)amino)-2-methyl-1,2,3,4-tetrahydroquinolin-6-yl)nicotinate] | 63.1 to 501 | 63.1 to 501 | 63.1 to 501 | 200 to 3160
CC(=O)N1c2ccc(-c3ccc(C(=O)OCCCN(C)C)cn3)cc2[C@H](Nc2ccc(C#N)cn2)C[C@@H]1C [Example 5, 3-(Dimethylamino)propyl 6-((2S,4R)-1-acetyl-4-((5-cyanopyridin-2-yl)amino)-2-methyl-1,2,3,4-tetrahydroquinolin-6-yl)nicotinate] | 63.1 to 501 | 63.1 to 501 | 63.1 to 501 | 200 to 3160

Second part, the compound after the results:

IC50 [1] [nM] | IC50 [2] [nM] | IC50 [3] [nM] | IC50 [4] [nM] | Compound
63.1 to 501 | 63.1 to 501 | 63.1 to 501 | – | CC(=O)N1c2ccc(-c3ccc(C(=O)OCCCN(C)C)cc3)cc2[C@H](Nc2ccc(Cl)cc2)C[C@@H]1C [Example 4, 3-(Dimethylamino)propyl 4-((2S,4R)-1-acetyl-4-((4-chlorophenyl)amino)-2-methyl-1,2,3,4-tetrahydroquinolin-6-yl)benzoate]
63.1 to 501 | 63.1 to 501 | 63.1 to 501 | 200 to 3160 | CC(=O)N1c2ccc(-c3ccc(C(=O)OCCN(C)C)cc3)cc2[C@H](Nc2ccc(Cl)cc2)C[C@@H]1C [Example 1, 2-(Dimethylamino)ethyl 4-((2S,4R)-1-acetyl-4-((4-chlorophenyl)amino)-2-methyl-1,2,3,4-tetrahydroquinolin-6-yl)benzoate hydrochloride]
63.1 to 501 | 63.1 to 501 | 63.1 to 501 | 200 to 3160 | CC(=O)N1c2ccc(-c3ccc(C(=O)OCCCN(C)C)cc3)cc2[C@H](NC(=O)OC(C)C)C[C@@H]1C [Example 7, 3-(Dimethylamino)propyl 4-((2S,4R)-1-acetyl-4-((isopropoxycarbonyl)amino)-2-methyl-1,2,3,4-tetrahydroquinolin-6-yl)benzoate]

— US9029395B2, “Tetrahydroquinoline derivatives useful as bromodomain inhibitors” (GlaxoSmithKline LLC, priority 2011, dated 2015)
